Each structure is given as a SMILES string.

One data set has as its target T1, PSMA (Homo sapiens, UniProt Q04609).
T1 construct: endogenous in cells; host or cells: LNCaP cell lysate
The data set can be described thus: fluorescence-based PSMA inhibition assay (NAAG hydrolysis, LNCaP cell lysates, Amplex Red). The data set is classed as biochemical. Conditions: for Ki: PSMA inhibitory activity, Cheng-Prusoff conversion.

Data set [1] relates to PSMA+PIP and PSMA-flu tumors in a male SCID mouse. As to conditions: 44.4 MBq (1.2 mCi) intravenously, imaged repeatedly over an eight day period.

T1 sequence (Q04609 whole entry): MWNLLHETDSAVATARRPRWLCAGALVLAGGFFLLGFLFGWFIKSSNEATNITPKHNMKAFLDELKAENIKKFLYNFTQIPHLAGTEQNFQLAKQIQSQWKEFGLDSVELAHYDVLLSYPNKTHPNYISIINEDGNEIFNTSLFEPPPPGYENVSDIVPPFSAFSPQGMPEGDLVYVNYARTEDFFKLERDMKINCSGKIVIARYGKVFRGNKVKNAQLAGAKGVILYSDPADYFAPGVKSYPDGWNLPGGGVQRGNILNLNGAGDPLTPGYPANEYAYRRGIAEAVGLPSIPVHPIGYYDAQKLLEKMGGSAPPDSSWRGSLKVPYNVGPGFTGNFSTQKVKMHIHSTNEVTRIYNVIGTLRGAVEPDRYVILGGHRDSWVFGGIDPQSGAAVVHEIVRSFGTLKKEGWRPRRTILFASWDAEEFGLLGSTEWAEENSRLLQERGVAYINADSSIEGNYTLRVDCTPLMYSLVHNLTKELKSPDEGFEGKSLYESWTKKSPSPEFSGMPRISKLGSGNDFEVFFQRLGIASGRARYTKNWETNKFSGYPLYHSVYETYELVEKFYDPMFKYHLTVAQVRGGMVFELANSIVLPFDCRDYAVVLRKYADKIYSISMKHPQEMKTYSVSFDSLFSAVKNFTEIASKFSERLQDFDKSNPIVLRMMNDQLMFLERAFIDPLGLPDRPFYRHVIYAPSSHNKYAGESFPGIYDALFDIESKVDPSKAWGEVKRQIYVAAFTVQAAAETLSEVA

What is called Ki is a measure of affinity in units of concentration, obtained from inhibition or displacement. High values mean weaker binding, low ones tighter binding. `O=C(O)CCC(NC(=O)N[C@@H](CCCCNC(=O)CCCCCCC(=O)NC(CCCCc1[nH]nnc1C(=O)NC(CCCCNC(=O)c1cn(CCCCC(NC(=O)CCCCCCC(=O)NCCCC[C@H](NC(=O)NC(CCC(=O)O)C(=O)O)C(=O)O)C(=O)O)nn1)C(=O)NC(CCCCNC(=O)CN1CCN(CC(=O)O)CCN(CC(=O)O)CCN(CC(=O)O)CC1)C(=O)O)C(=O)O)C(=O)O)C(=O)O` (stereo partly drawn) [Compound 3, (7S)-26-(4-((1-((1-carboxy-5-(2-(4,7,10-tris(carboxymethyl)-1,4,7,10-tetraazacyclododecan-1-yl)acetamido)pentyl)amino)-1-oxo-6-(1-((7 S)-1,3,7,22-tetracarboxy-5,13,20-trioxo-4,6,12,21-tetraazahexacosan-26-yl)-1H-1,2,3-triazole-4-carboxamido)hexan-2-yl)carbamoyl)-1H-1,2,3-triazol-5-yl)-5,13,20-trioxo-4,6,12,21-tetraazahexacosane-1,3,7,22-tetracarboxylic acid] had a Ki at PSMA of 0.08 nM.

`O=C(O)CC[C@H](NC(=O)N[C@@H](CCCCNC(=O)CCCCCCC(=O)NC(CCCCn1cc(C(=O)NCCCCC(NC(=O)c2cn(CCCCC(NC(=O)CCCCCCC(=O)NCCCC[C@H](NC(=O)N[C@@H](CCC(=O)O)C(=O)O)C(=O)O)C(=O)O)nn2)C(=O)NC(CCCCNC(=O)CN2CCN(CC(=O)O)CCN(CC(=O)O)CCN(CC(=O)O)CC2)C(=O)O)nn1)C(=O)O)C(=O)O)C(=O)O.[111In+3]` (stereo partly shown) [[^111In]3]: the “radiotracer uptake on SPECT-CT” value in data set [1] was “Intense radiotracer uptake was seen only in the PSMA+PIP tumors and in the kidneys”.

On to `NCCCCC(NC(=O)C(CCCCNC(=O)c1cn(CCCCC(NC(=O)CCCCCCC(=O)NCCCC[C@H](NC(=O)NC(CCC(=O)O)C(=O)O)C(=O)O)C(=O)O)nn1)NC(=O)c1nn[nH]c1CCCCC(NC(=O)CCCCCCC(=O)NCCCC[C@H](NC(=O)NC(CCC(=O)O)C(=O)O)C(=O)O)C(=O)O)C(=O)O` (stereo partly drawn) [Compound 2, (7S)-26-(4-((1-((5-amino-1-carboxypenty 1)amino)-1-oxo-6-(1-((7S)-1,3,7,22-tetracarboxy-5,13,20-trioxo-4,6,12,21-tetraazahexacosan-26-yl) 1H-1,2,3-triazole-4-carboxamido)hexan-2-yl)carbamoyl)-1H-1,2,3-triazol-5-yl)-5,13,20-trioxo-4,6,12,21-tetraazahexacosane-1,3,7,22-tetracarboxylic acid], for which the affinity on PSMA corresponds to a Ki of 0.1 nM. Also, the “increase in binding affinity (Ki) compared to monovalent 1” value at PSMA (relative to compound 1) turned out to be 5 fold.
